Data as given in ChEMBL document CHEMBL3507680, “University of Dundee, Gates Library screen for HepG2 cell viability”.

Test: Human HepG2 cell viability assay in 384 well format
Type: toxicity, cell-based
Design: dose 125 nL, time 70.5 hour; cytotoxicity at 70.5 h: concentration not given beside the values
Details: HepG2 cells, read-out: Inhibition

| SMILES | cytotoxicity at 70.5 h [%] |
| --- | --- |
| CCC[C@H]1CN(S(=O)(=O)c2ccc(Cl)cc2)C[C@@H]1NC(C)=O | 22.5 |
| CC(NCCn1c(=O)oc2ccccc21)c1ccccn1 (centres undefined) | -5.54 |
| Cc1ccc(CNCCS(=O)(=O)N2CCOCC2)cc1C | -6.06 |
| COCCN(C(=O)c1cc(-c2ccc(C)s2)[nH]n1)C1CC1 | -3.98 |
| Cn1nnc2c1CCN(Cc1ccoc1)C2COCc1ccccc1 (centres undefined) | 1.66 |
| CNc1cc(C2CCCN2C(=O)CCc2cnn(C)c2C)ccn1 (centres undefined) | -8.49 |
| CCN(C)C1COC2(CCN(C(=O)c3ccc(Cl)cc3)CC2)C1 (centres undefined) | -9.04 |
| CCOC(=O)CN1CCC2(CC1)CC(NC(=O)c1ccccn1)CO2 (centres undefined) | -1.03 |
| CCc1noc(CN(CCC2CCCCC2)CC(N)=O)n1 | -14.6 |
| Cc1ccc(F)cc1C(=O)OCC1CCCN1C(N)=O (centres undefined) | -1.91 |
| O=C(Nc1ccc2c(c1)C(=O)NC2=O)c1ccc(Cl)s1 | -10.9 |
| Cc1cc(C)nc(N2CCC(Cn3cc(C(N)=O)cn3)CC2)n1 | -7.04 |
| COCC1CN(c2ccc3c(Cl)ccnc3c2F)CCO1 (centres undefined) | 20.2 |
| CCN(C)C(=O)c1ccc(N(C)Cc2cc(-c3cccnc3)no2)nc1 | 0.809 |
| O=C(C1CCCO1)N1CC[C@@H]2CN(Cc3ccccc3)S(=O)(=O)[C@@H]2CC1 (some centres undefined) | -6.03 |
| CC(C)S(=O)(=O)N1CCC(c2[nH]ncc2S(C)(=O)=O)C1 (centres undefined) | -2.31 |
| CC(C)c1csc(NC(=O)NC2CCCN(c3cnn(C)c3)C2)n1 (centres undefined) | -7.46 |
| Cc1cnc(C)c(-c2cc(O)c3c(c2)CN(c2nccs2)CCO3)n1 | -5.12 |
| Cc1nn(-c2ncccn2)c2c1C(c1cnn(C)c1C)SCC(=O)N2 (centres undefined) | -22.5 |
| Cc1cc(NC(=O)CCNC(C)(C)c2nc(C)c(C)s2)no1 | -5.95 |
| CC(C)CN1CCC(NC(=O)N(C)Cc2csc3ccccc23)CC1 | -3.08 |
| Cc1cc(NC2CCN(c3ccccc3)C2)n2ncnc2n1 (centres undefined) | -5.01 |

| SMILES | cytotoxicity at 70.5 h [%] |
| --- | --- |
| CS(=O)(=O)CC(=O)NCC1OCCc2cn(CC3CC3)nc21 (centres undefined) | -1.93 |
| COCC(=O)N1CCCN(c2ncnc3c2CCNCC3)CC1 | -5.03 |
| COCCN(Cc1ccccc1)C(=O)c1csc(-c2nnc[nH]2)n1 | -5.25 |
| CC(C)c1cc(C(=O)O)nc2[nH]c(=O)[nH]c(=O)c12 | -15.1 |
| OC1CCCOC12CCN(CCCOc1ccccc1F)CC2 (centres undefined) | -10.9 |
| Cc1nn(C(C)(C)C)c(C)c1C(=O)NCC1(C(N)=O)CCOCC1 | -8.76 |
| CCNC(=O)N1CCc2ccc(NC(=O)NCC3CC3)cc21 | -12.1 |
| Cc1ccc(N2Cc3nc(=O)n(C(C)C)n3C2=O)cc1 | -28.9 |
| CCCN1CCN(C(=O)c2ccc(Cn3cc(Br)cn3)cc2)CC1 | -7.06 |
| O=C([C@H]1COC[C@H]2CN(C3CCOCC3)C[C@H]21)N1CCCO1 | -1.26 |
| Cc1cc(F)ccc1N1CCCC(NC(=O)CCc2ccncc2)C1 (centres undefined) | -23.5 |
| CC(=O)N1CCN(C(=O)c2ccc3ccn(C)c3c2)CC1 | -15.9 |
| Cc1ccc(CN2CCC3(CC2)C(=O)N(CC(C)C)CCN3C)s1 | 22.7 |
| CCCOc1ccc2c(c1)OCC(C(=O)NC(C)Cn1cccn1)=C2 (centres undefined) | 1.23 |
| C[C@H](N)Cn1nc(-c2cccs2)oc1=O | -1.53 |
| CCC(=O)N1CSCC1C(=O)N(C)CCc1ccccc1 (centres undefined) | 7.14 |
| Cc1ccc2cnn(CCC(=O)NCc3c(C)nn(C)c3C)c2c1 | -6.87 |
| COc1c(NS(=O)(=O)c2cc(C)ccc2C)c(C)nn1C | -63.5 |
| CCN1CCN(C2CCN(Cc3nc(CCOC)no3)CC2)C1=O | -3.79 |
| Cc1noc(C[C@@H]2COC[C@H]3CN(S(C)(=O)=O)C[C@@H]23)n1 | -5.3 |
| Cn1cc(N2C[C@@H]3CN(S(=O)(=O)C4CC4)C[C@@H]3C2=O)cn1 | 2.74 |
| Cc1ccc(NCCCNC(=O)NCc2c(C)cc(C)[nH]c2=O)nc1 | -10.4 |

| SMILES | cytotoxicity at 70.5 h [%] |
| --- | --- |
| CC[C@H]1CN2CC[C@H]1C[C@@H]2CNCc1ccc(OC(F)(F)F)cc1 | -7.22 |
| CS(=O)(=O)N[C@@H]1CCN(Cc2cccnc2)[C@H]1Cc1ccccc1 | -11.7 |
| COCCOCCNC(=O)c1cccc(Cn2nc(C)cc2C)c1 | 34.2 |
| Cn1cc(Br)cc(NC(=O)CC2CCC2)c1=O | -6.41 |
| O=C(NCC1CCOC1)c1cc(-c2cccc(Cl)c2)[nH]n1 (centres undefined) | -17 |
| Fc1cccc(-c2nc(CN3CCOC(Cn4cncn4)C3)co2)c1 (centres undefined) | -15.8 |
| Cc1nc(CN2C[C@@H]3CN(C(=O)c4ccoc4C)C[C@@H]3C2)cs1 | 28.2 |
| Cc1noc(C)c1S(=O)(=O)N(C)Cc1nn(C)c(Cl)c1Cl | 24.3 |
| Nc1nc(Nc2ccccc2)cc(N2CCNCC2)n1 | -3.76 |
| COc1cccc(C(C(=O)O)N2CCCN(C3CCCC3)CC2)c1OC (centres undefined) | 20.1 |
| O=C(c1cccc(O)c1)N1C[C@@H](CN2CCCCC2)[C@@H](CO)C1 | -4.01 |
| Cc1nc(CCCNC(=O)Nc2ccc(F)cc2F)n[nH]1 | -6.94 |
| CN(C(=O)Cn1nc(-c2ccccc2F)ccc1=O)C1CCS(=O)(=O)C1 (centres undefined) | -25.7 |
| CC(=O)N1CCCCC[C@@H]2[C@@H]1[C@H](c1cccc(F)c1)CN2C(C)=O | -10.6 |
| CCOc1ccccc1OCC(=O)NCc1ncc(C)c(OC)c1C | -10.2 |
| CC(C)N(CC(N)=O)Cc1cccc(Br)c1 | 1.5 |
| O=C1CC[C@H]2[C@H](CCN2S(=O)(=O)C2CC2)N1CCN1CCCC1 | 25.5 |
| Cn1cc(C(=O)N[C@@H]2CN(Cc3ccc(F)cc3)[C@@H]3CCCO[C@@H]32)cn1 | -4.56 |
| CC(C)c1nccn1CCCNC(=O)c1ccc(-c2cccnc2)nc1 | -9.12 |
| O=C1[C@H]2CCCC[C@H]2C(=O)N1c1cnn(Cc2cccc(F)c2)c1 | 1.76 |
| COCCN1C[C@H]2[C@@H](C1)N(C(=O)CCc1ccccc1)CC[C@H]2OC | -10.6 |
| Cn1cc(CN2C[C@@H]3COC[C@]3(CNC(=O)c3ccsc3)C2)cn1 | -5.87 |

| SMILES | cytotoxicity at 70.5 h [%] |
| --- | --- |
| Cc1nc2cc(=O)[nH]n2c(C)c1CNC(=O)c1cnn(C(C)(C)C)c1 | 4.01 |
| CC(C)CC(=O)N1Cc2ccccc2CC1C(=O)Nc1nncs1 (centres undefined) | 1.18 |
| CN(C)C(=O)NC1COC2(CCN(Cc3ccc(Cl)c(F)c3)CC2)C1 (centres undefined) | -8.77 |
| COc1ccc(Br)cc1CN(C)C(C)c1nc(C)no1 (centres undefined) | -20.1 |
| CCOCC1CN(C(=O)C2CCOCC2)Cc2cnn(C)c21 (centres undefined) | 17.4 |
| CNc1cc2c(nn1)CCN(C(=O)c1ccc(-n3nccc3C)cc1)C2 | -5.27 |
| CN(CC(=O)N1CCC(N(C)c2ccccc2)CC1)c1cnccn1 | 0.531 |
| Cc1csc(C(=O)N2CCC(S(C)(=O)=O)C2)c1 (centres undefined) | -3.26 |
| OC1CCCN(Cc2ccc(F)c3cccnc23)C1 (centres undefined) | -0.871 |
| CCc1ccc(C(=O)O)cc1S(=O)(=O)Nc1ccc(F)c(C#N)c1 | 6.85 |
| O=S(=O)(NC1CCC12CCN(CC1CCOCC1)CC2)c1ccccc1 (centres undefined) | -2.17 |
| Cc1ncnc2c1CCN(C(=O)c1ccnnc1)CC2 | -2.5 |
| Cc1noc([C@@H]2C[C@H]3OCC[C@H]3N(Cc3sccc3C)C2)n1 | 4.03 |
| Cc1nnc(N2CCOC(C)(C(=O)NC3CCCC3)C2)c2ccccc12 (centres undefined) | -3.81 |
| O=C1[C@H]2CC[C@H](CN(C3CCOCC3)C2)N1Cc1cscn1 | 23.4 |
| CCN(CCn1cccn1)C(=O)CN1C(=O)OC[C@@H]1C(C)C | -3.13 |
| CCS(=O)(=O)CC(=O)Nc1c(C)cnn1Cc1cc(F)ccc1F | 25.7 |
| CCN(C(=O)C1CCC1)C(c1cccnc1)c1ccc2c(c1)CCO2 (centres undefined) | 38.8 |
| CC(=O)c1cnc(NCCCN2CCOCC2)nc1C | 14.7 |
| Cn1cccc1C(=O)N1C[C@@H]2C[C@@H](c3nnc(C4CC4)o3)O[C@@H]2C1 | -3.51 |
| CC(=O)NCc1cccc(-n2ccnc2-c2cccc(C(=O)O)c2)c1 | 16.6 |
| CC(O)CN1CCc2[nH]nc(C(c3ccccc3)c3ccccc3)c2C1 (centres undefined) | -5.7 |

| SMILES | cytotoxicity at 70.5 h [%] |
| --- | --- |
| Cc1ccc(C2(CN(C)Cc3c(C)nn(C)c3C)CCNCC2)nc1 | 19.9 |
| CCN1C[C@H]2C3(CCN(C(=O)NC(C)C)CC3)CC[C@@]2(C(=O)NC)C1 | -11.3 |
| COc1cccc(CC(=O)N2CCN(c3cccc(C)c3)C(C)C2)c1 (centres undefined) | 0.115 |
| COCCn1cc(NC(=O)NC(C)CCc2ccccc2)ccc1=O (centres undefined) | -7.43 |
| Cc1cnn(C2CN(CC(=O)Nc3cccnc3)C2)c1 | -9.68 |
| O=C(Cc1ccc(F)cc1)NCCNCc1cccc(O)c1 | 0.177 |
| CCCn1cc(-c2cc(C(=O)N(C)C)c3ccc(C)cc3n2)cn1 | -9.76 |
| CC(=O)N1CCC(C)(c2cc[nH]n2)CC1 | -3.17 |
| COCCn1cnc2ccc(NC(=O)C(C)C)cc2c1=O | -7.01 |
| COCCOc1ccc(S(=O)(=O)Nc2cccc(O)c2F)cc1C | -7.45 |
| Cn1cnnc1C1CCCN(C(=O)c2cc(Cl)c(Cl)n2C)C1 (centres undefined) | -8.15 |
| Cc1nc(N2CCCC2)nc2c1CN(C(=O)N(C)C)CC2 | -1.53 |
| CCN(CC)Cc1cc(=O)n2c(n1)CN(C(=O)c1ccnnc1)CCC2 | -3.81 |
| CC1(C)[C@H](Cc2cc(CN3CCOCC3)on2)C[C@@H]1NC(=O)C1CCC1 | 11.5 |
| c1cc(C2CC2)n2cnc(C3CN(Cc4ccncc4)CCO3)c2c1 (centres undefined) | -1.44 |
| CC(=O)N1CC2(CCN(S(=O)(=O)N(C)C)CC2)C2(CCNC2=O)C1 (centres undefined) | -1.55 |
| CS(=O)(=O)N1CCCCC1CCc1ccc(O)cc1 (centres undefined) | 16.6 |
| Cc1ccc(N2CCC3(CCN(Cc4ccccn4)CC3)CC2)nn1 | -11.7 |
| c1cncc(OCc2noc3c2CN(Cc2ccsc2)CC3)c1 | 15.9 |
| Cc1nn(C)c(C)c1C1CCCN1C(=O)c1ccc(NC2CC2)nc1 (centres undefined) | -17.5 |
| Cc1noc(C(C)C)c1C(=O)NCCCN1CCNCC1 | -7.14 |
